Test results as given in patent US20140343159A1, “FORMULATION OF SMALL ADRENERGIC AGONIST SALT FORMS IN ORGANIC SOLVENTS” (PROCERTUS BIOPHARM, INC., priority 2011, published 2014).

Experiments:
[1] = format: physicochemical
Method: (§1) Known weights of (−) norepinephrine-tartrate dry powder were added to individual, 2.0 ml clear glass vials. An appropriate volume of ethanol and water at a ratio of 70:30 by volume solvent was then added to achieve the indicated concentrations. Sealed vials were vortexed for five seconds and then left at room temperature for 24 hr in the dark before examination to determine turbidity of liquid due to undissolved material.
Known weights of (−) norepinephrine-tartrate or (+/−) norepinephrine-HCl dry powders were added to individual, 2.0 ml, clear glass vials. An appropriate volume of ethanol to water (70:30) solvent was then added to achieve the indicated concentrations. Sealed vials were vortexed for five seconds and then left at room temperature for 24 hr in the dark before examination to determine turbidity of liquid due to undissolved material. Table 2, below, provides the solubility of (+/−) norepinephrine-HCl and (−) norepinephrine-tartrate in topical delivery vehicle of ethanol and water (70:30).
as §1, with “the indicated norepinephrine salts” for “(−) norepinephrine-tartrate dry powder”, “ml,” for “ml”, “of” for “of ethanol and water at a ratio of”, “(ethanol:water)” for “by volume”, “hr” for “hr in the dark”

[2] = tested on: human skin; assay: Skin blanch response in human skin following topical application; format: in vivo; conditions: 600 mM solution in 70:30 ethanol:water compared with supersaturated 300 mM (−) norepinephrine-tartrate
Method: Appropriate weights of each dry norepinephrine salt were weighed into clear glass vials, and appropriate volumes of ethanol and water at a ratio of 70:30, by volume, were added to achieve the indicated norepinephrine concentrations. The (+/−) norepinephrine-HCl dissolved to clarity with 5 second mixing at room temperature, and the (−) norepinephrine-tartrate required heating to 60° C. for 5 minutes and then mixing to clarify. 25 μL aliquots of each formulation were applied using a pipettor over multiple 2×2 cm patches of skin on volunteer's arm over a 20 second period. Images to record skin blanch onset, degree and duration were begun at 2 minute post-application. % Skin Blanch scores were assigned by visual evaluation. 100% Skin Blanch equaled the skin blanch seen after pressing firmly on the skin and quickly releasing.
Equal concentrations (300 mM) of the (−) norepinephrine enantiomer, either alone as the tartrate salt or in the presence of an equal amount of the (+) enantiomer HCl salt, were applied to human skin in the ethanol:water (70:30) delivery vehicle, and the pharmacologic efficacy of the (−) norepinephrine was scored based upon its ability to induce a skin blanch response by binding to al adrenergic receptors in the smooth muscle cells of the subcutaneous dermal blood vessels. […]

[3] = Stability of (−) norepinephrine-HCl dissolved in water at 1000 mM; format: physicochemical; conditions: 4° C. and 24° C., weeks/months following formulation
Method: (−) norepinephrine-HCl dissolved in water at 1000 mM is stable at 4° C. and 24° C. as determined by the absence of precipitate or colored oxidation products in the weeks/months following initial formulation. Previous formulations of norepinephrine-tartrate in saline (e.g., Levophed®, Hospira, Inc., Lake Forest, Ill.) have norepinephrine concentrations of 1-5 mM.
(−) norepinephrine-HCl was weighed into a glass vial. An appropriate volume of N2-purged water ([…] with vigorous N2 bubbling and stir bar) was delivered to the vial. The vial headspace was flushed with N2 gas and the vial was sealed. The vial was vortexed for 5 seconds to produce a clear solution. A weighed amount of dry citric acid solid was added to the (−) norepinephrine-HCl solution, the vial headspace was flushed with N2 and the vial was sealed. The vial was vortexed until the solution was clear. 200 μl aliquots of (−) norepinephrine-HCl+citric acid solution were added to 2.0 ml, clear, glass vials (previously rinsed with ethanol and dried). The vial headspaces were optionally flushed with N2 gas and the vials were sealed. 3.0 ml of (−) norepinephrine-HCl+citric acid solution was transferred to a glass vial, an appropriate dry weight of sodium EDTA was added to the vial, the vial headspace was flushed with N2 gas, the vial was sealed and the vial was vortexed until clear. […]

[4] = tested on: radiation-treated rats; assay: Radiodermatitis in radiation-treated rats after topical vasoconstrictor; format: in vivo, rat; conditions: two rats, 600 mM in ethanol:water (70:30) delivery vehicle applied prior to irradiation (FIG. 1)
Excerpt: In the model, a topical vasoconstrictor was applied to a shaved area on the backs of rats prior to irradiation with a Cs^137 source. The severity of radiodermatitis was scored on day 13. Vasoconstriction at the topical treatment site was evidenced by the transient occurrence of a visible skin blanch that correlates with therapeutic efficacy in the rat radiodermatitis model. This skin blanch may serve as a surrogate efficacy marker for clinical studies. The general strategy of using topical vasoconstrictors to prevent these cancer therapy side effects is addressed in U.S. Pub. No 2007/0077219, which is incorporated by reference in its entirety herein.

[5] = tested on: radiation-treated rats; conditions: topical, applied prior to irradiation of rat skin; cited from earlier work
[6] = molecular target: β2 adrenergic receptor (Homo sapiens, UniProt P07550); conditions: cited from earlier work
[7] = super-saturated solutions for topical application; cited from earlier work

Sequence of β2 adrenergic receptor (P07550 whole entry, species assumed): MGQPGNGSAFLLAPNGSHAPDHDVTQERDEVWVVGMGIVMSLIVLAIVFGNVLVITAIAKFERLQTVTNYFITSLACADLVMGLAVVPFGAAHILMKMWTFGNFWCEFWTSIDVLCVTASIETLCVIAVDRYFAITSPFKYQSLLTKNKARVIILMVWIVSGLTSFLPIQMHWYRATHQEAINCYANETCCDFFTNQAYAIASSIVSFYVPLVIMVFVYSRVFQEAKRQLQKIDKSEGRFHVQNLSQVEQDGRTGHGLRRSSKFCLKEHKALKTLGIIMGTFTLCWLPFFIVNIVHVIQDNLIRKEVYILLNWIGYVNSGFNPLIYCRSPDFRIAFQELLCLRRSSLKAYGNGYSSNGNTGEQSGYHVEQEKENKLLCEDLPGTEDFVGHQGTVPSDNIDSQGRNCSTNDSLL

Cl.NCC(O)c1ccc(O)c(O)c1 (racemic) [(+/−) norepinephrine-HCl]
maximum solubility [1]: at least 2000 mM
solubility relative to (−) norepinephrine-tartrate [1]: at least 10 fold
vasoconstrictor activity in inducing a skin blanch response [2]: at least the same activity

Cl.NC[C@H](O)c1ccc(O)c(O)c1 [(−) norepinephrine-HCl]
maximum solubility [1]: at least 2000 mM
stability by absence of precipitate or colored oxidation products [3]: stable
occurrence of radiodermatitis [4]: absence of radiodermatitis

CNC[C@H](O)c1ccc(O)c(O)c1 [epinephrine]
protection against development of radiation dermatitis [5]: complete protection

NC[C@H](O)c1ccc(O)c(O)c1 [norepinephrine]
protection against development of radiation dermatitis [5]: the same protection
binding to the β2 adrenergic receptor [6]: does not bind

(−) norepinephrine-tartrate
maximum solubility [1]: 200 mM
solubility limit [1]: about 200 mM
stability of super-saturated solution [7]: stable for only a few hours
